Source: patent US9833497B2, “Human originated EGF domain proteins and use of the same” (CHENGDU SOURCEBIO LIMITED-LIABILITY COMPANY, priority 2013, dated 2017)

Key:
Format in all cases: cell-based
[1] = tested on: Citrobacter diversus; test: MIC against Gram-negative bacteria: Citrobacter diversus
How it was run: (§1)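 Antibacterial activity of purified human EGF domain proteins: two-fold concentration series, triplicate wells, LB broth, 5×10^5 CFU/mL bacteria, 37° C shaking incubation. The lowest concentration without growth defines the MIC.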

[2] = tested on: Proteus mirabilis; test: MIC against Gram-negative bacteria: Proteus mirabilis
How it was run: as §1

[3] = tested on: Proteus vulgaris; test: MIC against Gram-negative bacteria: Proteus vulgaris
How it was run: as §1

[4] = tested on: Moraxella catarrhalis; test: MIC against Gram-negative bacteria: Moraxella catarrhalis
How it was run: as §1

[5] = tested on: E. coli BL21; test: MIC against Gram-negative bacteria: E. coli BL21
How it was run: as §1

[6] = tested on: E. coli DH5α; test: Antibacterial activity: MIC and growth curve against E. coli DH5α in 96-well plate; conditions: minimal inhibitory concentration against E. coli DH5α; 96-well plate, 5×10^5 CFU/mL, 37° C., judged after 8 h
How it was run: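 MIC taken as lowest protein level with no bacterial growth, tracked by A600 every 30 min during 37 °C, 175 rpm culture. Two-fold protein series 50-12.5 μg/mL final, triplicate wells, against 5×10^5 CFU/mL of LB-washed mid-log cells.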

[7] = tested on: Pseudomonas aeruginosa; test: MIC against Gram-negative bacteria: Pseudomonas aeruginosa
How it was run: as §1

[8] = tested on: Klebsiella pneumonia; test: MIC against Gram-negative bacteria: Klebsiella pneumonia
How it was run: as §1

[9] = tested on: Serratia marcescens; test: MIC against Gram-negative bacteria: Serratia marcescens
How it was run: as §1

[10] = tested on: Aeromonas hydrophila; test: MIC against Gram-negative bacteria: Aeromonas hydrophila
How it was run: as §1

[11] = tested on: Enterobacter cloacae; test: MIC against Gram-negative bacteria: Enterobacter cloacae
How it was run: as §1

[12] = 10 h cultivation at 37° C., 5×10^5 CFU/mL, two-fold serial dilution
[13] = Citrobacter diversus, 96-well plate, 5×10^5 CFU/mL, 37° C., 10 h
[14] = Proteus mirabilis, 96-well plate, 5×10^5 CFU/mL, 37° C., 10 h
[15] = Proteus vulgaris, 96-well plate, 5×10^5 CFU/mL, 37° C., 10 h
[16] = Moraxella catarrhalis, 96-well plate, 5×10^5 CFU/mL, 37° C., 10 h
[17] = E. coli BL21, 96-well plate, 5×10^5 CFU/mL, 37° C., 10 h
[18] = Pseudomonas aeruginosa, 96-well plate, 5×10^5 CFU/mL, 37° C., 10 h
[19] = Klebsiella pneumonia, 96-well plate, 5×10^5 CFU/mL, 37° C., 10 h
[20] = Serratia marcescens, 96-well plate, 5×10^5 CFU/mL, 37° C., 10 h
[21] = Aeromonas hydrophila, 96-well plate, 5×10^5 CFU/mL, 37° C., 10 h
[22] = Enterobacter cloacae, 96-well plate, 5×10^5 CFU/mL, 37° C., 10 h

Question: Which results are given for “PRT1414 (EVDCMDPTCSGRGVCVRGECHCSVGWGGTNCE; listed as Homo sapiens)”?
Answer: MIC against C. diversus ([1]; Citrobacter diversus, 5×10^5 CFU/mL, 10 h cultivation at 37° C.): 12.5 mg/L; MIC against P. mirabilis ([2]; Proteus mirabilis, 5×10^5 CFU/mL, 10 h cultivation at 37° C.): 12.5 mg/L; MIC against P. vulgaris ([3]; Proteus vulgaris, 5×10^5 CFU/mL, 10 h cultivation at 37° C.): 12.5 mg/L; MIC against M. catarrhalis ([4]; Moraxella catarrhalis, 5×10^5 CFU/mL, 10 h cultivation at 37° C.): 50 mg/L; MIC against E. coli BL21 ([5]; E. coli BL21, 5×10^5 CFU/mL, 10 h cultivation at 37° C.): 12.5 mg/L; MIC [6]: 50 mg/L; MIC against P. aeruginosa ([7]; Pseudomonas aeruginosa, 5×10^5 CFU/mL, 10 h cultivation at 37° C.): 50 mg/L; MIC against K. pneumonia ([8]; Klebsiella pneumonia, 5×10^5 CFU/mL, 10 h cultivation at 37° C.): 12.5 mg/L; MIC against S. marcescens ([9]; Serratia marcescens, 5×10^5 CFU/mL, 10 h cultivation at 37° C.): 25 mg/L; MIC against A. hydrophila ([10]; Aeromonas hydrophila, 5×10^5 CFU/mL, 10 h cultivation at 37° C.): 12.5 mg/L; MIC against E. cloacae ([11]; Enterobacter cloacae, 5×10^5 CFU/mL, 10 h cultivation at 37° C.): 50 mg/L

Question: “PRT1184 (NPNDCLPDPCHSRGRCYDLVNDFYCACDDGWKGKTCH; listed as Homo sapiens)” was tested. Which “MIC C. diversus” value [1, 12] did it give?
Answer: Its value is 25 mg/L.

Question: What about the “MIC P. mirabilis” value [2, 12] of the same substance?
Answer: Its value is 25 mg/L.

Question: And the “MIC P. vulgaris” value [3, 12]?
Answer: Its value is 12.5 mg/L.

Question: What about the “MIC M. catarrhalis” value [4, 12] of the same substance?
Answer: The value was 50 mg/L.

Question: What about the “MIC E. coli BL21” value [5, 12] of the same substance?
Answer: The value was 25 mg/L.

Question: What about the MIC [6] of the same substance?
Answer: Its MIC is 50 mg/L.

Question: And the “MIC P. aeruginosa” value [7, 12]?
Answer: Its value is 12.5 mg/L.

Question: And the “MIC K. pneumonia” value [8, 12]?
Answer: Its value is 25 mg/L.

Question: What about the “MIC S. marcescens” value [9, 12] of the same substance?
Answer: Its value is 25 mg/L.

Question: And the “MIC A. hydrophila” value [10, 12]?
Answer: Its value is 12.5 mg/L.

Question: And the “MIC E. cloacae” value [11, 12]?
Answer: Its value is 50 mg/L.

Question: How did the “MIC (μg/mL) C. diversus” value [1, 13] turn out when “PRT1498 (PESPCLQNPCQNDGQCREQGATFTCECEVGYGGGLCM; listed as Homo sapiens)” was run?
Answer: Its value is 50 µg/mL.

Question: What about the “MIC (μg/mL) P. mirabilis” value [2, 14] of the same substance?
Answer: Its value is 50 µg/mL.

Question: And the “MIC (μg/mL) P. vulgaris” value [3, 15]?
Answer: Its value is 12.5 µg/mL.

Question: What about the “MIC (μg/mL) M. catarrhalis” value [4, 16] of the same substance?
Answer: The value was 12.5 µg/mL.

Question: And the “MIC (μg/mL) E. coli BL21” value [5, 17]?
Answer: The value was 25 µg/mL.

Question: And the MIC [6]?
Answer: Its MIC is 50 mg/L.

Question: What about the “MIC (μg/mL) P. aeruginosa” value [7, 18] of the same substance?
Answer: The value was 12.5 µg/mL.

Question: What about the “MIC (μg/mL) K. pneumonia” value [8, 19] of the same substance?
Answer: Its value is 12.5 µg/mL.

Question: And the “MIC (μg/mL) S. marcescens” value [9, 20]?
Answer: Its value is 12.5 µg/mL.

Question: What about the “MIC (μg/mL) A. hydrophila” value [10, 21] of the same substance?
Answer: The value was 12.5 µg/mL.

Question: What about the “MIC (μg/mL) E. cloacae” value [11, 22] of the same substance?
Answer: Its value is 50 µg/mL.

Question: Which “MIC (μg/mL) C. diversus” value ([1]; C. diversus, 10 h cultivation at 37° C., 5×10^5 CFU/mL) does the source give for “PRT265 (CQDGHGGCSEHANCSQVGTMVTCTCLPDYEGDGWSC; listed as Homo sapiens)” here?
Answer: Its value is 25 µg/mL.

Question: And the “MIC (μg/mL) P. mirabilis” value ([2]; P. mirabilis, 10 h cultivation at 37° C., 5×10^5 CFU/mL)?
Answer: Its value is 25 µg/mL.

Question: And the “MIC (μg/mL) P. vulgaris” value ([3]; P. vulgaris, 10 h cultivation at 37° C., 5×10^5 CFU/mL)?
Answer: The value was 50 µg/mL.

Question: What about the “MIC (μg/mL) M. catarrhalis” value ([4]; M. catarrhalis, 10 h cultivation at 37° C., 5×10^5 CFU/mL) of the same substance?
Answer: Its value is 25 µg/mL.

Question: What about the “MIC (μg/mL) E. coli BL21” value ([5]; E. coli BL21, 10 h cultivation at 37° C., 5×10^5 CFU/mL) of the same substance?
Answer: The value was 12.5 µg/mL.

Question: And the MIC [6]?
Answer: Its MIC is 25 mg/L.

Question: What about the “MIC (μg/mL) P. aeruginosa” value ([7]; P. aeruginosa, 10 h cultivation at 37° C., 5×10^5 CFU/mL) of the same substance?
Answer: The value was 25 µg/mL.

Question: And the “MIC (μg/mL) K. pneumonia” value ([8]; K. pneumonia, 10 h cultivation at 37° C., 5×10^5 CFU/mL)?
Answer: Its value is 12.5 µg/mL.

Question: And the “MIC (μg/mL) S. marcescens” value ([9]; S. marcescens, 10 h cultivation at 37° C., 5×10^5 CFU/mL)?
Answer: Its value is 25 µg/mL.

Question: And the “MIC (μg/mL) A. hydrophila” value ([10]; A. hydrophila, 10 h cultivation at 37° C., 5×10^5 CFU/mL)?
Answer: Its value is 12.5 µg/mL.

Question: And the “MIC (μg/mL) E. cloacae” value ([11]; E. cloacae, 10 h cultivation at 37° C., 5×10^5 CFU/mL)?
Answer: Its value is 25 µg/mL.

Question: How did the MIC ([1]; C. diversus, 10 h cultivation at 37° C.) turn out when “PRT967 (ARDACESQPCRAGGTCSSDGMGFHCTCPPGVQGRQCE; listed as Homo sapiens)” was run?
Answer: Its MIC is 12.5 mg/L.

Question: What about the MIC ([2]; P. mirabilis, 10 h cultivation at 37° C.) of the same substance?
Answer: Its MIC is 12.5 mg/L.

Question: And the MIC ([3]; P. vulgaris, 10 h cultivation at 37° C.)?
Answer: The MIC was 25 mg/L.

Question: And the MIC ([4]; M. catarrhalis, 10 h cultivation at 37° C.)?
Answer: The MIC was 25 mg/L.

Question: And the MIC ([5]; E. coli BL21, 10 h cultivation at 37° C.)?
Answer: Its MIC is 12.5 mg/L.

Question: And the MIC [6]?
Answer: The MIC was 50 mg/L.

Question: And the MIC ([7]; P. aeruginosa, 10 h cultivation at 37° C.)?
Answer: Its MIC is 12.5 mg/L.

Question: And the MIC ([8]; K. pneumonia, 10 h cultivation at 37° C.)?
Answer: Its MIC is 25 mg/L.

Question: And the MIC ([9]; S. marcescens, 10 h cultivation at 37° C.)?
Answer: The MIC was 12.5 mg/L.

Question: What about the MIC ([10]; A. hydrophila, 10 h cultivation at 37° C.) of the same substance?
Answer: The MIC was 25 mg/L.

Question: And the MIC ([11]; E. cloacae, 10 h cultivation at 37° C.)?
Answer: Its MIC is 12.5 mg/L.

Question: Which results are given for “PRT129 (CSTYGHLCRNGGRCREKRRGVTCDCAFSAYDGPFC; listed as Homo sapiens)”?
Answer: MIC (μg/mL) C. diversus [1, 13]: 12.5 µg/mL; MIC (μg/mL) P. mirabilis [2, 14]: 25 µg/mL; MIC (μg/mL) P. vulgaris [3, 15]: 12.5 µg/mL; MIC (μg/mL) M. catarrhalis [4, 16]: 25 µg/mL; MIC (μg/mL) E. coli BL21 [5, 17]: 12.5 µg/mL; MIC [6]: 50 mg/L; MIC (μg/mL) P. aeruginosa [7, 18]: 50 µg/mL; MIC (μg/mL) K. pneumonia [8, 19]: 12.5 µg/mL; MIC (μg/mL) S. marcescens [9, 20]: 12.5 µg/mL; MIC (μg/mL) A. hydrophila [10, 21]: 25 µg/mL; MIC (μg/mL) E. cloacae [11, 22]: 50 µg/mL
